Measurements reported in patent US4861788A, “Antibacterial 1-normon-2-yl-heterocyclic compounds” (Beecham Group plc, priority 1983, dated 1989).
Values after ≈ are worked out from the molar mass of the structure shown. Like-named read-outs stand apart in the source and are kept apart here.

Key:
M. hyopneumoniae NB12 = test: MIC against Mycoplasma in vitro (Friis broth with agarose); format: cell-based; details: Mesomycoplasma hyopneumoniae
M. hyopneumoniae HK (2) = test: as above; format: cell-based; details: Mesomycoplasma hyopneumoniae, 144 h
[1] = test system: M. hyopneumoniae J2206/183^b; test: as above; format: cell-based; details: Mesomycoplasma hyopneumoniae, 144 h
[2] = test system: M. hyopneumoniae PW/C/210; test: as above; format: cell-based; details: Mesomycoplasma hyopneumoniae, 144 h
M. hyopneumoniae LABER = test: as above; format: cell-based; details: Mesomycoplasma hyopneumoniae, 144 h
[3] = test system: M. hyopneumoniae ATCC 25095; test: as above; format: cell-based; details: Mesomycoplasma hyopneumoniae, ATCC25095, 144 h
M. bovis NCTC 10131 = test: microbe, parasite or virus in culture; format: cell-based; details: NCTC10131, 144 h
M. gallisepticum S6 = test: MIC against Mycoplasma in vitro (Friis broth with agarose); format: cell-based; details: Mycoplasmoides gallisepticum
[4] = test system: Corynebacterium xerosis 9755; test: MIC against human bacteria in vitro (nutrient agar, chocolated horse blood); format: cell-based; details: Corynebacterium xerosis, 9755, 18 h
Procedure, shortened: (§1)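 Compounds were tested in vitro by serial dilution in nutrient agar containing 5% chocolated horse blood, and the MIC was read as the lowest inhibitory concentration.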

E. coli NCTC 10418 = test: as above; format: cell-based; details: Escherichia coli, NCTC10418, 18 h
Procedure, shortened: as §1

[5] = test system: Haemophilus influenzae Q1; test: as above; format: cell-based
Procedure, shortened: as §1

[6] = test system: Haemophilus influenzae Wy21; test: as above; format: cell-based
Procedure, shortened: as §1

K. aerogenes A = test: as above; format: cell-based; details: Klebsiella aerogenes, 18 h
Procedure, shortened: as §1

[7] = test system: Neisseria catarrhalis 1502; test: as above; format: cell-based
Procedure, shortened: as §1

P. mirabilis 889 = test: as above; format: cell-based; details: Proteus mirabilis, 889, 18 h
Procedure, shortened: as §1

[8] = test system: Pasteurella multocida 1633; test: as above; format: cell-based
Procedure, shortened: as §1

[9] = test system: Ps. aeruginosa NCTC 10662; test: as above; format: cell-based; details: Pseudomonas aeruginosa, NCTC10662, 18 h
Procedure, shortened: as §1

Sarcina lutea 8340 = test: as above; format: cell-based; details: Micrococcus luteus, 8340, 18 h
Procedure, shortened: as §1

Staph. aureus Oxford = test: as above; format: cell-based; details: Staphylococcus aureus
Procedure, shortened: as §1

Staph. aureus Russell = test: as above; format: cell-based; details: Staphylococcus aureus
Procedure, shortened: as §1

Strep. agalactiae 2788-B = test: as above; format: cell-based; details: Streptococcus agalactiae, 2788B, 18 h
Procedure, shortened: as §1

Strep. pneumoniae CN33 = test: as above; format: cell-based; details: Streptococcus pneumoniae, CN33, 18 h
Procedure, shortened: as §1

[10] = test system: Strep. pyogenes R80/421-A; test: as above; format: cell-based; details: Streptococcus pyogenes, R80/421A, 18 h
Procedure, shortened: as §1

Strep. spp. 64/848-C = test: as above; format: cell-based
Procedure, shortened: as §1

S. dublin S7 = test: MIC against veterinary bacteria in vitro (Diagnostic Sensitivity Test Agar); details: Salmonella enterica, S7, 18 h
Procedure: (§2) The activity of the normonyl derivatives of the Examples against various veterinarily important bacteria, was assayed in vitro using two-fold serial dilutions in Diagnostic Sensitivity Test Agar inoculated with 10^4 organisms.

S. typhimurium S18 = test: as above; details: Salmonella enterica, 18 h
Procedure: as §2

[11] = test system: Erysipelothrix rhusiopathiae NCTC 8163; test: as above; details: NCTC8163, 18 h
Procedure: as §2

[12] = test system: Corynebacterium pyogenes CY1; test: as above; details: CY1, 18 h
Procedure: as §2

SMILES	MIC (M. bovis NCTC 10131) [µg/mL]	MIC [4] [µg/mL]	MIC (E. coli NCTC 10418) [µg/mL]	MIC (K. aerogenes A) [µg/mL]	MIC (P. mirabilis 889) [µg/mL]	MIC [9] [µg/mL]	MIC (Sarcina lutea 8340) [µg/mL]	MIC (Strep. agalactiae 2788-B) [µg/mL]	MIC (Strep. pneumoniae CN33) [µg/mL]	MIC [10] [µg/mL]	MIC (S. dublin S7) [µg/mL]	MIC (S. typhimurium S18) [µg/mL]	MIC [11] [µg/mL]	MIC [12] [µg/mL]	further results
CC(=CC(=O)NN)CC1OCC(CC2OC2C(C)C(C)O)C(O)C1O (stereo not shown) [Example 9, Monohydrazide A]	0.5 (≈ 1.39 µM)	> 100	> 100	> 100	≥ 100	> 100	> 100	≥ 100	≥ 100	100 (≈ 279 µM)	> 80	> 80	> 80	> 80	MIC (M. hyopneumoniae NB12; NB12, 144 h): 10 µg/mL (≈ 27.9 µM); MIC (M. hyopneumoniae HK (2)): 10 µg/mL (≈ 27.9 µM); MIC [1]: 10 µg/mL (≈ 27.9 µM); MIC [2]: 5 µg/mL (≈ 13.9 µM); MIC (M. hyopneumoniae LABER): 5 µg/mL (≈ 13.9 µM); MIC [3]: 5 µg/mL (≈ 13.9 µM); MIC (M. gallisepticum S6; S6, 144 h): > 10 µg/mL; MIC ([5]; Haemophilus influenzae, Q1, 18 h): 2.5 µg/mL (≈ 6.97 µM); MIC ([6]; Haemophilus influenzae, WY21, 18 h): 2.5 µg/mL (≈ 6.97 µM); MIC ([7]; Neisseria, 1502, 18 h): 2.5 µg/mL (≈ 6.97 µM); MIC ([8]; Pasteurella multocida, 1633, 18 h): 10 µg/mL (≈ 27.9 µM); MIC (Staph. aureus Oxford; 18 h): 100 µg/mL (≈ 279 µM); MIC (Staph. aureus Russell; 18 h): ≥ 100 µg/mL; MIC (Strep. spp. 64/848-C; 18 h): ≥ 100 µg/mL
CC(=Cc1nnc(-c2ccccc2)o1)CC1OCC(CC2OC2C(C)C(C)O)C(O)C1O (stereo not shown) [Example 1, 2-(1-Normon-2-yl)-5-phenyl-1,3,4-oxadiazole A]	0.05 (≈ 0.112 µM)	> 100	> 100	> 100	> 100	> 100	> 100	100 (≈ 225 µM)	100 (≈ 225 µM)	100 (≈ 225 µM)	> 80	> 80	80 (≈ 180 µM)	> 80	MIC (M. hyopneumoniae NB12; 144 h, M. hyopneumoniae NB12, 6 days at 37° C, read-out: MIC): 2.5 µg/mL (≈ 5.62 µM); MIC ([1]; M. hyopneumoniae J2206/183^b, 6 days at 37° C, read-out: MIC): 5 µg/mL (≈ 11.2 µM); MIC ([2]; M. hyopneumoniae PW/C/210, 6 days at 37° C, read-out: MIC): 2.5 µg/mL (≈ 5.62 µM); MIC (M. hyopneumoniae LABER; M. hyopneumoniae LABER, 6 days at 37° C, read-out: MIC): 2.5 µg/mL (≈ 5.62 µM); MIC ([3]; M. hyopneumoniae ATCC 25095, 6 days at 37° C, read-out: MIC): 2.5 µg/mL (≈ 5.62 µM); MIC (M. gallisepticum S6; 144 h, M. gallisepticum S6, 6 days at 37° C, read-out: MIC): > 10 µg/mL; MIC ([5]; human, Haemophilus influenzae Q1, 18 hours at 37° C, read-out: MIC): 2.5 µg/mL (≈ 5.62 µM); MIC ([6]; human, Haemophilus influenzae Wy21, 18 hours at 37° C, read-out: MIC): 2.5 µg/mL (≈ 5.62 µM); MIC ([7]; human, Neisseria catarrhalis 1502, 18 hours at 37° C, read-out: MIC): 2.5 µg/mL (≈ 5.62 µM); MIC ([8]; human, Pasteurella multocida 1633, 18 hours at 37° C, read-out: MIC): 2.5 µg/mL (≈ 5.62 µM); MIC (Staph. aureus Oxford; human, Staph. aureus Oxford, 18 hours at 37° C, read-out: MIC): 10 µg/mL (≈ 22.5 µM); MIC (Staph. aureus Russell; human, Staph. aureus Russell, 18 hours at 37° C, read-out: MIC): 25 µg/mL (≈ 56.2 µM); MIC (Strep. spp. 64/848-C; human, Strep. spp. 64/848-C, 18 hours at 37° C, read-out: MIC): 25 µg/mL (≈ 56.2 µM)
